Measured values reported in patent US20080119505A1, “Novel 6-Pyridylphenanthridines” (ALTANA Pharma AG, priority 2005, published 2008).

Molecular target: T1, PDE4B2 (Homo sapiens, UniProt Q07343)
T1 construct: made in house; host or cells: SF21 insect cells (baculovirus; virus made in SF9 cells)
Assay: Inhibition of PDE4 activity (PDE4B2 [3H]cAMP SPA enzyme assay)
Type: biochemical
Settings: recombinant PDE4B2 expressed in SF21 insect cells, 0.5 μM cAMP, read-out: −log IC50 (mol/l), Inhibition of the PDE4 activity (converted)
Method: The PDE4B2 (GB no. M97515) was a gift of Prof. M. Conti (Stanford University, USA). It was amplified from the original plasmid (pCMV5) via PCR with primers Rb9 (5′-[…]-3′) and Rb10 (5′-[…]-3′) and cloned into the pCR-Bac vector (Invitrogen, Groningen, NL).
The recombinant baculovirus was prepared by means of homologous recombination in SF9 insect cells. The expression plasmid was cotransfected with Bac-N-Blue (Invitrogen, Groningen, NL) or Baculo-Gold DNA (Pharmingen, Hamburg) using a standard protocol (Pharmingen, Hamburg). Wt virus-free recombinant virus supernatant was selected using plaque assay methods. After that, high-titre virus supernatant was prepared by amplifying 3 times. PDE was expressed in SF21 cells by infecting 2×10^6 cells/ml with an MOI (multiplicity of infection) between 1 and 10 in serum-free SF900 medium (Life Technologies, Paisley, UK). […]
The SF21 insect cells were resuspended, at a concentration of approx. 10^7 cells/ml, in ice-cold (4° C.) homogenization buffer (20 mM Tris, pH 8.2, containing the following additions: 140 mM NaCl, 3.8 mM KCl, 1 mM EGTA, 1 mM MgCl2, 10 mM β-mercaptoethanol, 2 mM benzamidine, 0.4 mM Pefablock, 10 μM leupeptin, 10 μM pepstatin A, 5 μM trypsin inhibitor) and disrupted by ultrasonication. […] The protein content was determined by the Bradford method (BioRad, Munich) using BSA as the standard. […]

T1 sequence (Q07343 1-564 isoform Q07343-2): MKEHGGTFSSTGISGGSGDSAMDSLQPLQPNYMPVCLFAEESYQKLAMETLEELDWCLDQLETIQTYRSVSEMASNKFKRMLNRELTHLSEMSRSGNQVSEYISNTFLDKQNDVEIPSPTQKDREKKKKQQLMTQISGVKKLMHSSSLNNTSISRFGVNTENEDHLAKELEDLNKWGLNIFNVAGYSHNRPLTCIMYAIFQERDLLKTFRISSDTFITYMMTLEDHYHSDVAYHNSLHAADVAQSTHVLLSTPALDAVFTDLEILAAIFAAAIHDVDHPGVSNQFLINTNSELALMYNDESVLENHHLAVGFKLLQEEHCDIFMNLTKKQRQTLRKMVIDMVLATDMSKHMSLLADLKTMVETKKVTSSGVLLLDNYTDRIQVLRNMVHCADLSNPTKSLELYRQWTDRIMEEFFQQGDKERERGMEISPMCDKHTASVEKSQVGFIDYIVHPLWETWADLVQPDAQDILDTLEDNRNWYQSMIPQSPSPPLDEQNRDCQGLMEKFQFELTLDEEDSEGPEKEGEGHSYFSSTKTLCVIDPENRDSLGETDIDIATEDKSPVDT

IC50: 3.24 nM
Compound: CCOc1cc2c(cc1OC)C(c1ccc(OC)nc1OC)=N[C@@H]1CCCC[C@H]21 [Example 2, (4aR,10bR)-6-(2,6-Dimethoxy-pyridin-3-yl)-9-ethoxy-8-methoxy-1,2,3,4,4a,10b-hexahydro-phenanthridine]
